For 48 compounds, Ki, IC50 and Kd results are on record in PMC7904875, “Identification and Functional Analysis of SlitOBP11 From Spodoptera litura” (Frontiers in Physiology, 2021).

Like-named read-outs stand apart in the source and are kept apart here.

Common to all, as to type: binding
Test [1] has as its target T1, SlitOBP11 (Spodoptera litura, UniProt A0A9J7E9A4).
T1 construct: gene LOC111356549; mature protein, predicted 23-residue signal peptide removed; ORF 465 bp, given as 155 aa; pET32a(+) (BamHI/HindIII), E. coli BL21(DE3); Ni-NTA purified, tag cleaved with enterokinase
T1 sequence (A0A9J7E9A4 24-154): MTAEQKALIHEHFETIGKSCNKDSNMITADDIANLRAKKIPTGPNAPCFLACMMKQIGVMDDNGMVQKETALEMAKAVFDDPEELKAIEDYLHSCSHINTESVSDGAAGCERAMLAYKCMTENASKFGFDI
The experiment in a line: competitive displacement of 1-NPN fluorescence. To be noted: for Ki: read-out: Ki (μmol L^-1)^∗. From the text:
competitive displacement of 1-NPN fluorescence on SlitOBP11

The target in test [2] is T1, SlitOBP11. The test is described as follows: competitive displacement of 1-NPN fluorescence.
Test [3] concerns the target T1, SlitOBP11. The test is described as follows: fluorescence titration, Scatchard. The following applies: read-out: dissociation constant.

Consider `CC/C=C/CCCCCCCCCCOC(C)=O` [(E)-11-tetradecenly acetate, (E)-11-Tetradecenyl acetate], for which, at SlitOBP11 [1], the Ki – broadly, a measure of affinity in units of concentration, obtained from inhibition or displacement – was determined as 13.5 ± 0.479 µM. The half-inhibitory concentration (IC50) – broadly, the concentration that gives 50% inhibition – at SlitOBP11 [2] (read-out: IC50) was found to be 15.2 ± 0.54 µM.

Consider `CCC(C)CC(=O)O` (stereo not drawn) [3-methylpentanoic acid], for which the IC50 on SlitOBP11 [2] was more than 50 µM.

As for `CC(C)CCC(=O)O` [4-methylpentanoic acid], the IC50 on SlitOBP11 [2] is more than 50 µM.

Consider `CC(=O)OC/C=C(\C)CCC=C(C)C` [Geranyl acetate], for which, on SlitOBP11 [2], the IC50 was more than 50 µM.

As for `CCCCCCCCCCCCCCCCCC` [N-octadecane], the IC50 on SlitOBP11 [2] was more than 50 µM.

Consider `CC(=O)OCCc1ccccc1` [Phenethyl acetate], for which, at SlitOBP11 [1], the Ki was 43.1 ± 0.488 µM. The compound further gave an IC50 on SlitOBP11 [2] of 48.6 ± 0.52 µM.

At SlitOBP11 [2], `CC1=CCC(C(C)C)C=C1` (stereo not drawn) [Alpha-phellandrene] displayed an IC50 of more than 50 µM.

As to `C=CC(C)(O)CCC=C(C)C` (racemic) [(±)-Linalool], the IC50 on SlitOBP11 [2] (read-out: IC50) is more than 50 µM.

At SlitOBP11 [2], `CC12CCC(CC1)C(C)(C)O2` [Eucalyptol] returned an IC50 of more than 50 µM.

As for `CC(=O)OCc1ccccc1` [Benzyl acetate], on SlitOBP11 [2], the IC50 is more than 50 µM.

In the case of `CCCCCCCC=O` [Octyl aldehyde], the IC50 at SlitOBP11 [2] is more than 50 µM.

`c1ccc2[nH]ccc2c1` [Indole]: the IC50 on SlitOBP11 [2] is more than 50 µM.

As to `CCCCCCCCCCCCC` [Tridecane], on SlitOBP11 [2], the IC50 was more than 50 µM.

Turning to `CC/C=C/C=C\CCCCCCCCOC(C)=O` [(Z, E)-9,11-tetradecadienyl acetate, (Z,E)-9,11-Tetradecadienyl acetate], the Ki at SlitOBP11 [1] was determined as 13.9 ± 1.44 µM. Besides, on SlitOBP11 [2], the IC50 stood at 15.6 ± 1.41 µM.

For `CC(=O)/C=C/C1=C(C)CCCC1(C)C` [Beta-ionone], the IC50 on SlitOBP11 [2] was more than 50 µM.

Compound `CCCCCCCCCC=O` [Decanal] returned an IC50 at SlitOBP11 [2] of more than 50 µM.

`C=C(C)[C@H]1CC=C(C)C(=O)C1` [(+)-Carvone] displayed an IC50 on SlitOBP11 [2] of more than 50 µM.

Turning to `CCCCCCCCCCCC` [Dodecane], the IC50 at SlitOBP11 [2] is more than 50 µM.

The compound `CC(C)CC(=O)O` [3-methylbutyric acid] had an IC50 on SlitOBP11 [2] of more than 50 µM.

Take `C=CC(=C)CCC=C(C)C` [Myrcene]: the IC50 on SlitOBP11 [2] was more than 50 µM.

Take `CCCC/C=C\CCCCCCCCOC(C)=O` [(Z)-9-tetradecenyl acetate, (Z)-9-Tetradecenyl acetate]: at SlitOBP11 [1], the Ki turned out to be 9.97 ± 0.492 µM. Also, on SlitOBP11 [2], the IC50 came out at 11.2 ± 0.55 µM.

For `C/C=C/C/C=C\CCCCCCCCOC(C)=O` [(Z, E)-9,12-tetradecadienyl acetate, (Z,E)-9,12-Tetradecadienyl acetate], on SlitOBP11 [1], the Ki is 14.4 ± 0.317 µM. Moreover, the IC50 on SlitOBP11 [2] was found to be 16.2 ± 0.32 µM.

For `COC(=O)c1ccccc1O` [Methyl salicylate], the IC50 at SlitOBP11 [2] is more than 50 µM.

In turn, `CCCCC(=O)O` [Pentanoic acid] registered an IC50 at SlitOBP11 [2] of more than 50 µM.

With `CC(=O)CC/C=C(\C)CCC=C(C)C` [Geranylacetone], on SlitOBP11 [2], the IC50 is more than 50 µM.

`CCCCCC(=O)O` [Hexanoic acid] came in with an IC50 at SlitOBP11 [2] of more than 50 µM.

At SlitOBP11 [2], `CC/C=C\CCOC(C)=O` [Cis-3-hexenyl acetate] had an IC50 of more than 50 µM.

At SlitOBP11 [2], `CCCC(=O)O` [Butyric acid] had an IC50 of more than 50 µM.

Regarding `C=C(C)[C@H]1CC=C(C)CC1` [(R)-(+)-limonene], the half-inhibitory concentration (IC50) at SlitOBP11 [2] was more than 50 µM.

Consider `COC(=O)c1ccccc1N` [Methyl anthranilate], for which the IC50 on SlitOBP11 [2] (read-out: IC50) is more than 50 µM.

`CCCCCCC(=O)O` [Heptanoic acid] gave an IC50 on SlitOBP11 [2] of more than 50 µM.

As for `OCCc1ccccc1` [Phenethyl alcohol], the IC50 on SlitOBP11 [2] was more than 50 µM.

As to `CCCCCCCCCCCCCC` [Tetradecane], the IC50 on SlitOBP11 [2] was more than 50 µM.

Consider `O=Cc1ccccc1` [Benzaldehyde], for which the IC50 at SlitOBP11 [2] is more than 50 µM.

As to `c1ccc(Nc2cccc3ccccc23)cc1` [1-NPN, 1-N-Phenyl-naphthylamine], the Kd on SlitOBP11 [3] came out at 8.09 ± 0.26 µM.

The compound `CCc1ccccc1` [Ethylbenzene] had an IC50 at SlitOBP11 [2] of more than 50 µM.

In the case of `C/C=C/C(=O)O` [Crotonic acid], the IC50 at SlitOBP11 [2] (read-out: IC50 (μmol L^-1), 2 μM protein, 2 μM 1-NPN, 30 mM Tris-HCl pH 7.4, 4°C) was more than 50 µM.

On SlitOBP11 [2], `CCCC(=O)CC` [3-hexanone] registered an IC50 of more than 50 µM.

In the case of `OCc1ccccc1` [Benzyl alcohol], at SlitOBP11 [2], the IC50 is more than 50 µM.

In the case of `CC(=O)O` [Acetic acid], on SlitOBP11 [2], the IC50 is more than 50 µM.

Compound `CC(C)C(=O)O` [Isobutyric acid] registered an IC50 at SlitOBP11 [2] of more than 50 µM.

With `CCCCC(C)=O` [2-hexanone], the IC50 on SlitOBP11 [2] was more than 50 µM.

Consider Farnesene, for which the IC50 at SlitOBP11 [2] (2 μM protein, 2 μM 1-NPN, 30 mM Tris-HCl pH 7.4, 4°C, read-out: IC50) is more than 50 µM.

Turning to `C=C1CC/C=C(\C)CC[C@@H]2[C@@H]1CC2(C)C` [Beta-caryophyllene], on SlitOBP11 [2], the IC50 is more than 50 µM.

Turning to `O=CCc1ccccc1` [Phenylacetaldehyde], at SlitOBP11 [1], the IC50 turned out to be 43.4 ± 10.1 µM and the Ki is 35.8 ± 9.76 µM.

Take `C=CC(C)(O)CC/C=C(\C)CCC=C(C)C` (stereo not drawn) [Trans-nerolidol]: the IC50 at SlitOBP11 [2] was more than 50 µM.

On SlitOBP11 [2], `CC1=CCCC(C)(C)C1/C=C/C(C)O` (stereo not drawn) [Alpha- ionol] gave an IC50 of more than 50 µM.

For `CCC(=O)O` [Propanoic acid], the IC50 at SlitOBP11 [2] is more than 50 µM.
